The source made the active and inactive calls. The rule behind the calls is not given here.

The values below come from ChEMBL document CHEMBL1150479, “2-(3-hydroxypropoxy)-1,25-dihydroxyvitamin D3 (ED-71), preventive and therapeutic effects on bone mineral loss in ovariectomized rats” (Bioorg Med Chem Lett, 1993).

The test system of assay [1] is Rattus norvegicus. Description: In vivo intestinal calcium absorption was determined against ovariectomized rats; Stimulation. Type of assay: functional, organism-based.
The subject of assay [2] is Rattus norvegicus. The assay is described as follows: In vivo bone calcium mobilization was determined against ovariectomized rats; Stimulation. Format: functional, organism-based.
The species named for assay [3] is Rattus norvegicus. Description: In vitro bone resorption against ovariectomized rats; Weak stimulation. Type of assay: functional.
Assay [4] concerns the target T1, Vitamin D-binding protein (Rattus norvegicus) (UniProt P04276).
T1 sequence (whole entry): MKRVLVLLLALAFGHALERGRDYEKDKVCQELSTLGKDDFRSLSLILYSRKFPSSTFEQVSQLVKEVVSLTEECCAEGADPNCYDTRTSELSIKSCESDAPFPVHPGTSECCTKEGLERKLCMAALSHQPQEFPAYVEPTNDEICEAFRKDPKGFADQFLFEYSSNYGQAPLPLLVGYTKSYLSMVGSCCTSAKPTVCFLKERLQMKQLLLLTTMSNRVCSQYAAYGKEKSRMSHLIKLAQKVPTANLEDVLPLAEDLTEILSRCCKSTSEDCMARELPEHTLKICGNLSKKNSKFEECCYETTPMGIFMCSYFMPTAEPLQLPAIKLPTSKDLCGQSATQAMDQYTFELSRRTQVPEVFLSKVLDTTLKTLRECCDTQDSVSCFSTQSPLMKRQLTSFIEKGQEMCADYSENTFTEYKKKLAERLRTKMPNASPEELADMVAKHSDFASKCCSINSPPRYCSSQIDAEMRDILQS
Description: In vitro binding potency against vitamin D binding protein (DBP) in ovariectomized rats.

Assay [5] concerns the target T2, Vitamin D3 receptor (Rattus norvegicus) (UniProt P13053).
T2 sequence (whole entry): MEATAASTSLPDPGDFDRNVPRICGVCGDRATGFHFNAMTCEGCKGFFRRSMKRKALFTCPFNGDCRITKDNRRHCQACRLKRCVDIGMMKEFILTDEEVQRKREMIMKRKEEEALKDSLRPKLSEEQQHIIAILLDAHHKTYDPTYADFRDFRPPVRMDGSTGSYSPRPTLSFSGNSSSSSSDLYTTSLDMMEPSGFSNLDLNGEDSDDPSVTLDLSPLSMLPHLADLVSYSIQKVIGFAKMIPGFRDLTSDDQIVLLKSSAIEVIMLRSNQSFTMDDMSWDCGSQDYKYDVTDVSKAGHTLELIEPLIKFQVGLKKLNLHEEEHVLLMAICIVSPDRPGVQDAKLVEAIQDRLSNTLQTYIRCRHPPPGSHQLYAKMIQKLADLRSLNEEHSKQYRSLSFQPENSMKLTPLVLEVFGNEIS
The assay is described as follows: In vitro binding potency for vitamin D receptor VDR in 8 ovariectomized rats.

For assay [6], the species on record is Rattus norvegicus. Description: In vitro bone resorption against ovariectomized rats; Stimulation. Format: functional.
Assay [7] deals with T2, Vitamin D3 receptor (Rattus norvegicus).
Description: In vitro binding potency for vitamin D receptor VDR in ovariectomized rats

For the molecule `C=C1/C(=C\C=C2/CCC[C@]3(C)C([C@H](C)CCCC(C)(C)O)CC[C@@H]23)C[C@@H](O)[C@@H](OCCCO)[C@@H]1O` (stereo not given in full), the Absorption entry with Rattus norvegicus [1] was “Active”. Besides, the Mobilization entry in the assay on Rattus norvegicus [2] is “Active”. In addition, the Resorption entry in the assay filed under Rattus norvegicus [3] is “Partially active”. In addition, the figures for the Binding potency in assay [4] and in assay [5] were 2.7 and 1, respectively.
As for `C=C1/C(=C\C=C2/CCC[C@]3(C)[C@@H]([C@H](C)CCCC(C)(C)O)CC[C@@H]23)C[C@@H](O)C[C@@H]1O`, the Absorption result in the assay on Rattus norvegicus [1] was “Active”. In addition, in the assay with Rattus norvegicus [2], the Mobilization result was “Active”. For the same molecule, the Resorption result in the assay listed under Rattus norvegicus [6] was “Active”. The Binding potency in assay [4] and in assay [7] was 1 in each case.
